{"source": "patent US20100069317A1", "about": "“CRYSTALLINE NEMORUBICIN HYDROCHLORIDE” (NERVIANO MEDICAL SCIENCES S.R.L., priority 2006, published 2010)", "key": {"[1]": {"assay": "Hygroscopicity, dynamic water vapour sorption (DVS 1000)", "format": "physicochemical", "conditions": "for Change In Mass (%): 25° C.; for hygroscopicity (in words): when exposed to humidity", "protocol": "Hygroscopicity tests were performed by means of a DVS 1000 apparatus (SMS) allowing dynamic water vapour sorption analysis. Multiple sorption/desorption cycles between 0% and 90% RH were performed at 25° C.\nThe equipment is a “controlled atmosphere microbalance” where the weighed sample is exposed to controlled variations of the relative humidity (RH) at a constant temperature."}, "[2]": {"system": "experimental tumors (animal models)", "conditions": "cited from earlier work"}, "[3]": {"system": "liver metastases from M5076 murine fibrosarcoma", "conditions": "oral administration; cited from earlier work"}, "[4]": {"system": "tumor cells resistant to alkylating agents or topoisomerase II inhibitors", "conditions": "cells resistant to alkylating agents (melphalan, cisplatin) or topoisomerase II inhibitors (etoposide); cited from earlier work"}, "[5]": {"conditions": "in the presence of mouse, rat and human liver microsomes; cited from earlier work"}}}
{"compound": "COc1cccc2c1C(=O)c1c(O)c3c(c(O)c1C2=O)C[C@@](O)(C(=O)CO)C[C@@H]3O[C@H]1C[C@H](N2CCO[C@H](OC)C2)[C@H](O)[C@H](C)O1.Cl", "note": "[Amorphous, (8S-cis,2″S)-7,8,9,10-tetrahydro-6,8,11-trihydroxy-8-(hydroxyacetyl)-1-methoxy-10-{[2,3,6-trideoxy-3-(2-methoxy-4-morpholinyl)-α-L-lyxo-hexopyranosyl]oxy}-5,12-naphthacenedione hydrochloride]", "values": [{"measurement": "Change In Mass (%)", "setting": "[1]; Relative Humidity 3.1%, hydrochloride", "value": 0.30, "unit": "%"}, {"measurement": "Change In Mass (%)", "setting": "[1]; Relative Humidity 6.2%, hydrochloride", "value": 0.83, "unit": "%"}, {"measurement": "Change In Mass (%)", "setting": "[1]; Relative Humidity 9.3%, hydrochloride", "value": 1.35, "unit": "%"}, {"measurement": "Change In Mass (%)", "setting": "[1]; Relative Humidity 12.4%, hydrochloride", "value": 1.93, "unit": "%"}, {"measurement": "Change In Mass (%)", "setting": "[1]; Relative Humidity 15.5%, hydrochloride", "value": 2.45, "unit": "%"}, {"measurement": "Change In Mass (%)", "setting": "[1]; Relative Humidity 18.6%, hydrochloride", "value": 2.92, "unit": "%"}, {"measurement": "Change In Mass (%)", "setting": "[1]; Relative Humidity 21.7%, hydrochloride", "value": 3.37, "unit": "%"}, {"measurement": "Change In Mass (%)", "setting": "[1]; Relative Humidity 24.8%, hydrochloride", "value": 3.79, "unit": "%"}, {"measurement": "Change In Mass (%)", "setting": "[1]; Relative Humidity 27.9%, hydrochloride", "value": 4.19, "unit": "%"}, {"measurement": "Change In Mass (%)", "setting": "[1]; Relative Humidity 31.0%, hydrochloride", "value": 4.62, "unit": "%"}, {"measurement": "Change In Mass (%)", "setting": "[1]; Relative Humidity 34.1%, hydrochloride", "value": 5.08, "unit": "%"}, {"measurement": "Change In Mass (%)", "setting": "[1]; Relative Humidity 37.2%, hydrochloride", "value": 5.52, "unit": "%"}, {"measurement": "Change In Mass (%)", "setting": "[1]; Relative Humidity 40.3%, hydrochloride", "value": 5.96, "unit": "%"}, {"measurement": "Change In Mass (%)", "setting": "[1]; Relative Humidity 43.5%, hydrochloride", "value": 6.43, "unit": "%"}, {"measurement": "Change In Mass (%)", "setting": "[1]; Relative Humidity 46.6%, hydrochloride", "value": 6.90, "unit": "%"}, {"measurement": "Change In Mass (%)", "setting": "[1]; Relative Humidity 49.7%, hydrochloride", "value": 7.37, "unit": "%"}, {"measurement": "Change In Mass (%)", "setting": "[1]; Relative Humidity 52.8%, hydrochloride", "value": 7.88, "unit": "%"}, {"measurement": "Change In Mass (%)", "setting": "[1]; Relative Humidity 55.9%, hydrochloride", "value": 8.36, "unit": "%"}, {"measurement": "Change In Mass (%)", "setting": "[1]; Relative Humidity 59.0%, hydrochloride", "value": 8.92, "unit": "%"}, {"measurement": "Change In Mass (%)", "setting": "[1]; Relative Humidity 62.1%, hydrochloride", "value": 9.46, "unit": "%"}, {"measurement": "Change In Mass (%)", "setting": "[1]; Relative Humidity 65.2%, hydrochloride", "value": 10.10, "unit": "%"}, {"measurement": "Change In Mass (%)", "setting": "[1]; Relative Humidity 68.3%, hydrochloride", "value": 10.85, "unit": "%"}, {"measurement": "Change In Mass (%)", "setting": "[1]; Relative Humidity 71.4%, hydrochloride", "value": 11.69, "unit": "%"}, {"measurement": "Change In Mass (%)", "setting": "[1]; Relative Humidity 74.5%, hydrochloride", "value": 12.67, "unit": "%"}, {"measurement": "Change In Mass (%)", "setting": "[1]; Relative Humidity 77.6%, hydrochloride", "value": 14.01, "unit": "%"}, {"measurement": "Change In Mass (%)", "setting": "[1]; Relative Humidity 80.7%, hydrochloride", "value": 15.76, "unit": "%"}, {"measurement": "Change In Mass (%)", "setting": "[1]; Relative Humidity 83.8%, hydrochloride", "value": 18.09, "unit": "%"}, {"measurement": "Change In Mass (%)", "setting": "[1]; Relative Humidity 86.9%", "value": 21.51, "unit": "%"}, {"measurement": "Change In Mass (%)", "setting": "[1]; Relative Humidity 90.0%, hydrochloride", "value": 26.66, "unit": "%"}, {"measurement": "hygroscopicity (in words)", "setting": "[1]; listed as nemorubicin amorphous, hydrochloride", "value": "highly hygroscopic"}]}
{"compound": "COc1cccc2c1C(=O)c1c(O)c3c(c(O)c1C2=O)C[C@@](O)(C(=O)CO)C[C@@H]3O[C@H]1C[C@H](N2CCO[C@H](OC)C2)[C@H](O)[C@H](C)O1.Cl", "note": "[Form A, nemorubicin hydrochloride dihydrate]", "values": [{"measurement": "Change In Mass (%)", "setting": "[1]; Relative Humidity 0.0%", "value": 0.00, "unit": "%"}, {"measurement": "Change In Mass (%)", "setting": "[1]; Relative Humidity 3.1%, hydrochloride dihydrate", "value": 1.92, "unit": "%"}, {"measurement": "Change In Mass (%)", "setting": "[1]; Relative Humidity 6.2%, hydrochloride dihydrate", "value": 3.53, "unit": "%"}, {"measurement": "Change In Mass (%)", "setting": "[1]; Relative Humidity 9.3%, hydrochloride dihydrate", "value": 3.82, "unit": "%"}, {"measurement": "Change In Mass (%)", "setting": "[1]; Relative Humidity 12.4%, hydrochloride dihydrate", "value": 4.02, "unit": "%"}, {"measurement": "Change In Mass (%)", "setting": "[1]; Relative Humidity 15.5%, hydrochloride dihydrate", "value": 4.17, "unit": "%"}, {"measurement": "Change In Mass (%)", "setting": "[1]; Relative Humidity 18.6%, hydrochloride dihydrate", "value": 4.29, "unit": "%"}, {"measurement": "Change In Mass (%)", "setting": "[1]; Relative Humidity 21.7%, hydrochloride dihydrate", "value": 4.39, "unit": "%"}, {"measurement": "Change In Mass (%)", "setting": "[1]; Relative Humidity 24.8%, hydrochloride dihydrate", "value": 4.49, "unit": "%"}, {"measurement": "Change In Mass (%)", "setting": "[1]; Relative Humidity 27.9%, hydrochloride dihydrate", "value": 4.57, "unit": "%"}, {"measurement": "Change In Mass (%)", "setting": "[1]; Relative Humidity 31.0%, hydrochloride dihydrate", "value": 4.65, "unit": "%"}, {"measurement": "Change In Mass (%)", "setting": "[1]; Relative Humidity 34.1%, hydrochloride dihydrate", "value": 4.71, "unit": "%"}, {"measurement": "Change In Mass (%)", "setting": "[1]; Relative Humidity 37.2%, hydrochloride dihydrate", "value": 4.77, "unit": "%"}, {"measurement": "Change In Mass (%)", "setting": "[1]; Relative Humidity 40.3%, hydrochloride dihydrate", "value": 4.82, "unit": "%"}, {"measurement": "Change In Mass (%)", "setting": "[1]; Relative Humidity 43.5%, hydrochloride dihydrate", "value": 4.86, "unit": "%"}, {"measurement": "Change In Mass (%)", "setting": "[1]; Relative Humidity 46.6%, hydrochloride dihydrate", "value": 4.91, "unit": "%"}, {"measurement": "Change In Mass (%)", "setting": "[1]; Relative Humidity 49.7%, hydrochloride dihydrate", "value": 4.95, "unit": "%"}, {"measurement": "Change In Mass (%)", "setting": "[1]; Relative Humidity 52.8%, hydrochloride dihydrate", "value": 5.01, "unit": "%"}, {"measurement": "Change In Mass (%)", "setting": "[1]; Relative Humidity 55.9%, hydrochloride dihydrate", "value": 5.07, "unit": "%"}, {"measurement": "Change In Mass (%)", "setting": "[1]; Relative Humidity 59.0%, hydrochloride dihydrate", "value": 5.13, "unit": "%"}, {"measurement": "Change In Mass (%)", "setting": "[1]; Relative Humidity 62.1%, hydrochloride dihydrate", "value": 5.19, "unit": "%"}, {"measurement": "Change In Mass (%)", "setting": "[1]; Relative Humidity 65.2%, hydrochloride dihydrate", "value": 5.25, "unit": "%"}, {"measurement": "Change In Mass (%)", "setting": "[1]; Relative Humidity 68.3%, hydrochloride dihydrate", "value": 5.31, "unit": "%"}, {"measurement": "Change In Mass (%)", "setting": "[1]; Relative Humidity 71.4%, hydrochloride dihydrate", "value": 5.38, "unit": "%"}, {"measurement": "Change In Mass (%)", "setting": "[1]; Relative Humidity 74.5%, hydrochloride dihydrate", "value": 5.46, "unit": "%"}, {"measurement": "Change In Mass (%)", "setting": "[1]; Relative Humidity 77.6%, hydrochloride dihydrate", "value": 5.52, "unit": "%"}, {"measurement": "Change In Mass (%)", "setting": "[1]; Relative Humidity 80.7%, hydrochloride dihydrate", "value": 5.58, "unit": "%"}, {"measurement": "Change In Mass (%)", "setting": "[1]; Relative Humidity 83.8%, hydrochloride dihydrate", "value": 5.66, "unit": "%"}, {"measurement": "Change In Mass (%)", "setting": "[1]; Relative Humidity 86.9%, hydrochloride dihydrate", "value": 5.75, "unit": "%"}, {"measurement": "Change In Mass (%)", "setting": "[1]; Relative Humidity 90.0%, hydrochloride dihydrate", "value": 5.85, "unit": "%"}, {"measurement": "RH at which the two moles of water lost on desorption are re-adsorbed", "setting": "[1]; after a desorption cycle", "value": 30, "unit": "%"}, {"measurement": "change in mass", "setting": "[1]; at about 55% RH", "value": "about 5%"}, {"measurement": "hygroscopicity (in words)", "setting": "[1]; hydrochloride dihydrate", "value": "non hygroscopic"}]}
{"compound": "COc1cccc2c1C(=O)c1c(O)c3c(c(O)c1C2=O)C[C@@](O)(C(=O)CO)C[C@@H]3O[C@H]1C[C@H](N2CCO[C@H](OC)C2)[C@H](O)[C@H](C)O1", "note": "[nemorubicin, 3′ des amino-3′ [2(S)methoxy-4-morpholinyl] doxorubicin]", "values": [{"measurement": "optimal i.v. dose, fold less than that of doxorubicin", "setting": "[2]; i.v., in vivo", "value": "at least 80 fold"}, {"measurement": "oral doses giving antitumor activity comparable to i.v., fold higher than the effective i.v. doses", "setting": "[2]; oral vs i.v., all the animal models examined", "value": "1.3-2 fold"}, {"measurement": "survival time (best result)", "setting": "[3]", "value": "doubling of survival time"}, {"measurement": "cross-resistance", "setting": "[4]", "value": "no cross-resistance was observed"}, {"measurement": "cytotoxic activity in vitro", "setting": "[5]", "value": "increased"}]}
